Source: BindingDB's records for doi:10.1124/jpet.104.071282 (Neurocrine Biosciences, 2004)
“And” between values parts separate entries of the source, which are not always exact repeats. Equal entries are not always repeated.

Biological target: Gamma-aminobutyric acid receptor subunit alpha-1 (Rattus norvegicus, UniProt P62813)
Sequence (P62813 whole entry): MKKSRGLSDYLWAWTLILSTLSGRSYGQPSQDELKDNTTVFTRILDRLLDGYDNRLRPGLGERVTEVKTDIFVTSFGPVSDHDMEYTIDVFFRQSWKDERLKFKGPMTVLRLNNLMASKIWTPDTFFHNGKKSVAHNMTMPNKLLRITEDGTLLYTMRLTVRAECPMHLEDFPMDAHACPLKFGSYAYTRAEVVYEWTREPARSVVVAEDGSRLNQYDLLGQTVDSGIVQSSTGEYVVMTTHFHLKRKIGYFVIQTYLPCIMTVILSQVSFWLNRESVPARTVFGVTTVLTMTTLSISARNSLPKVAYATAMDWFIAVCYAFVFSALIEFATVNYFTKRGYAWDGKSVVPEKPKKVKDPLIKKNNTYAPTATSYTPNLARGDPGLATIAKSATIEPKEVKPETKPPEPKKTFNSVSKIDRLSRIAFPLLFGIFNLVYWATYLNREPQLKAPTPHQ

Cc1nnc2n1-c1ccc(Cl)cc1C(c1ccccc1Cl)=NC2 [Halcion]
Ki: 340 pM and 310 pM and 550 pM and 450 pM
